According to patent US20240254138A1, “TRICYCLIC PYRIMIDINES AS CYCLIN-DEPENDENT KINASE 7 (CDK7) INHIBITORS” (JANSSEN PHARMACEUTICA NV, priority 2021, published 2024):
Read-outs that look alike come from different tables or passages of the source.

Legend:
[1] = system: RNA Polymerase II Serine 5 phosphorylation (Rpb1 CTD, downstream substrate of CDK7) in A549 cells; assay: Imaging-based cellular RNA PolII Ser5 phosphorylation assay in A549 cells; format: cell-based, human; settings: wild-type CDK7, RNA PolII Ser5 phosphorylation, averaged over all measurements; for IC50: Homo sapiens, A549, A549 cells, read-out: CDK7_A549 Wild-type CDK7 (pIC50) (converted); for CDK7_A549 Wild-type CDK7 (pIC50): A549 cells
How it was run: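 IC50 derived by fitting % control (DMSO high, 10 μM reference low) against concentration, with Hill slope. Readout: high-content imaging of phospho-Ser5 Rpb1 CTD antibody staining in fixed, permeabilized A549 cells exposed to compound 3 h after 20 h culture in 1% FBS DMEM.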

[2] = system: RNA Polymerase II Serine 5 phosphorylation in A549 cells overexpressing CDK7-mutant (C312S); assay: Imaging-based cellular RNA PolII Ser5 phosphorylation assay in A549 cells overexpressing CDK7-mutant (C312S); format: cell-based, human; settings: RNA PolII Ser5 phosphorylation, averaged over all measurements; for IC50: Homo sapiens, A549, A549 cells overexpressing CDK7-mutant (C312S), read-out: CDK7_A549 mutant hCDK7(pIC50) (converted); for CDK7_A549 mutant hCDK7(pIC50): A549 cells overexpressing CDK7-mutant (C312S)
How it was run: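 Readout was automated imaging of anti-phospho-Ser5 Rpb1 CTD immunofluorescence, with IC50 fitted to % control versus concentration. Cells were A549 stably overexpressing non-covalently targetable CDK7 C312S alongside wild-type, exposed to compound 3 h at 37 °C. DMSO and 10 μM reference compound served as controls.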

[3] = biological target: CDK7/cyclinH/MAT1 trimeric complex (Homo sapiens, UniProt P50613); assay: In vitro CDK7 assay, potency of irreversible covalent inhibitors (kinact/KI), coupled PK/LDH ADP readout at 340 nm; settings: for Ki: CDK7 (20 nM enz.) (KI, μM); for Ki / CDK7 (20 nM enz.) (kinact, s^−1) / CDK7 (20 nM enz.) (kinact/KI, M^−1*s^−1) / CDK7 (20 nM enz.) (kobs/[I], M^−1*s^−1): 20 nM enzyme; for kinact: read-out: CDK7 (20 nM enz.) (kinact, s^−1), 20 nM enzyme
[4] = read-out: CDK7 (20 nM enz.) (kinact/KI, M^−1*s^−1), 20 nM enzyme
[5] = read-out: CDK7 (20 nM enz.) (kobs/[I], M^−1*s^−1), 20 nM enzyme

CDK7/cyclinH/MAT1 trimeric complex, sequence (P50613 whole entry): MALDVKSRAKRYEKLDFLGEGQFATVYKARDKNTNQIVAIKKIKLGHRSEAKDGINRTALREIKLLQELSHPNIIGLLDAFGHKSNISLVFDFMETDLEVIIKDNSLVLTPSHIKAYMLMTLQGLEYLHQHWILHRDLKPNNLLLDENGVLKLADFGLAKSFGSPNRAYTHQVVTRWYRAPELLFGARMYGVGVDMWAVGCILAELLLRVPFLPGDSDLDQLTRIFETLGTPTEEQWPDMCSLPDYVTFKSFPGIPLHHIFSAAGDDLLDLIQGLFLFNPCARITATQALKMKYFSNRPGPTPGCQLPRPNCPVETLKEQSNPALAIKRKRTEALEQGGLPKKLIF
CDK7/cyclinH/MAT1 trimeric complex, sequence (P51946 whole entry partner): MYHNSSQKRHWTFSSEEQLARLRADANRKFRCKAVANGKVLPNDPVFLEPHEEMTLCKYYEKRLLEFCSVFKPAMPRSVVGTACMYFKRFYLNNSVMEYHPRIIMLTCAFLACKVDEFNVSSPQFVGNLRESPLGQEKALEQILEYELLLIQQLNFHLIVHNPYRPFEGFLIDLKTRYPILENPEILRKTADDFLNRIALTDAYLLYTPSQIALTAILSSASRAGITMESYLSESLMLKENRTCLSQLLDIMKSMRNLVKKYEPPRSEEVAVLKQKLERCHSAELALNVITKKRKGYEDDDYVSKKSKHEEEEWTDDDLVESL
CDK7/cyclinH/MAT1 trimeric complex, sequence (P51948 whole entry partner): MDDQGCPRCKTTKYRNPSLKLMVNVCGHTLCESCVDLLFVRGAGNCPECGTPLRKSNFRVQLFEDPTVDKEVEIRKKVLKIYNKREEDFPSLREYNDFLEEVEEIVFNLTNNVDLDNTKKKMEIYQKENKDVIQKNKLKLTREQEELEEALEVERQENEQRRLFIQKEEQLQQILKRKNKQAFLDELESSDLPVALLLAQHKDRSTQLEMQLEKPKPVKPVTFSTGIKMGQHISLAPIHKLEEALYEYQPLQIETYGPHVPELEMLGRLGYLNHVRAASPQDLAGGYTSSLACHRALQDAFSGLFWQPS

IC50 [1] [nM] | IC50 [2] [nM] | Ki [3] [µM] | kinact [3] [s⁻¹] | kinact/KI [3, 4] [M⁻¹ s⁻¹] | CDK7 (20 nM enz.) (kinact, s^−1) [3] [s⁻¹] | CDK7 (20 nM enz.) (kinact/KI, M^−1*s^−1) [3] [M⁻¹ s⁻¹] | kinact/KI [3, 5] [M⁻¹ s⁻¹] | CDK7_A549 Wild-type CDK7 (pIC50) [1] | CDK7_A549 mutant hCDK7(pIC50) [2] | CDK7 (20 nM enz.) (kobs/[I], M^−1*s^−1) [3] [M⁻¹ s⁻¹] | SMILES
257 | > 10000 | 0.23 |  |  | 5.833e-05 | 253.792 |  |  |  |  | C=CC(=O)N1CC(N2CC[C@H](c3ccc4c(c3)Nc3nccc(N5CCOCC5)c3CO4)[C@@H](F)C2)C1 [Compound 110]
45.7 | 4170 |  |  |  |  |  | 622 |  |  |  | C=CC(=O)N1CCC(N2CC(c3cc4c(c(C(F)(F)F)c3)OCc3c(N5CCOCC5)ccnc3N4)C2)CC1 [Compound 111]
50.1 | > 10000 | 0.0779 | 4.23e-05 | 543 |  |  |  |  |  |  | C=CC(=O)N1CC(c2ncc(-c3cc(C)c4c(c3)Nc3nccc(C5CCOCC5)c3CO4)cn2)C1 [Compound 114]
398 | > 10000 | 0.293 | 5.05e-05 | 173 |  |  |  |  |  |  | C=CC(=O)N1CCC(c2nc(C)c(-c3cc(C)c4c(c3)Nc3nccc(C5CCOCC5)c3CO4)c(C)n2)CC1 [Compound 116]
126 | 7760 | 0.0512 | 4.56e-05 | 891 |  |  |  |  |  |  | C=CC(=O)N1CCC(N2CC(c3cc(F)c4c(c3)Nc3nccc(-c5cnn(C)c5)c3CO4)C2)CC1 [Compound 117]
69.2 | > 10000 |  |  |  |  |  | 1660 |  |  |  | C#CCCN(C)C/C=C/C(=O)N1CC(N2CCC(c3cc(C)c4c(c3)Nc3nccc(N5CCOCC5)c3CO4)CC2)C1 [Compound 122]
 |  | 0.0244 | 3.4e-05 | 1390 |  |  |  | 7.15 | <5 |  | C=CC(=O)N1CC(N2CCC(c3ccc4c(c3)Nc3nccc(C5CCOCC5)c3CO4)CC2)C1 [Compound 123]
151 | > 10000 | 0.17 | 5.48e-05 | 323 |  |  |  |  |  |  | C=CC(=O)N1CC(c2nc(C)c(-c3cc(C)c4c(c3)Nc3nccc(C5CCOCC5)c3CO4)c(C)n2)C1 [Compound 129]
97.7 | > 10000 | 0.11 | 7.73e-05 | 704 |  |  |  |  |  |  | C=CC(=O)N1CC(N2CCC(c3cc4c(cn3)OCc3c(C5CCOCC5)ccnc3N4)CC2)C1 [Compound 130]
363 | > 10000 | 0.312 | 7.08e-05 | 227 |  |  |  |  |  |  | C=CC(=O)N1CC(N2CCC(c3ccc4c(c3)Nc3nccc(N5CCc6nn(C)cc6C5)c3CO4)CC2)C1 [Compound 132]
126 | > 10000 | 0.0382 | 6.41e-05 | 1680 |  |  |  |  |  |  | C=CC(=O)N1CC(N2CCC(c3cc4c(cn3)OCc3c(N5CCOCC5)ccnc3N4)CC2)C1 [Compound 137]
661 | > 10000 | 0.515 | 6.73e-05 | 131 |  |  |  |  |  |  | C=CC(=O)N1CC(N2CCC(c3cc4c(cc3CO)OCc3c(N5CCOCC5)ccnc3N4)CC2)C1 [Compound 139]
178 | > 10000 | 0.16 | 8.36e-05 | 523 |  |  |  |  |  |  | C=CC(=O)N1CC(N2CCC(c3cc(F)c4c(c3)Nc3nccc(N5CCS(=O)(=O)CC5)c3CO4)CC2)C1 [Compound 141]
214 | > 10000 | 0.0285 | 5.53e-05 | 1940 |  |  |  |  |  |  | C#CCCN(C)C/C=C/C(=O)N1CC(N2CCC(c3ccc4c(c3)Nc3nccc(N5CCOCC5)c3C(C)O4)CC2)C1 (centres unmarked) [Compound 146]
288 | > 10000 | 0.0278 | 5.84e-05 | 2100 |  |  |  |  |  |  | C#CCCN(C)C/C=C/C(=O)N1CC(N2CCC(c3ccc4c(c3)Nc3nccc(C5CCOCC5)c3C(C)O4)CC2)C1 (centres unmarked) [Compound 147]
37.2 | 5500 | 0.0507 | 3.38e-05 | 666 |  |  |  |  |  |  | C=CC(=O)N1CCC(N2CC(c3cc(Cl)c4c(c3)Nc3nccc(C5CCOCC5)c3CO4)C2)CC1 [Compound 148]
490 | > 10000 | 0.304 | 9.03e-05 | 298 |  |  |  |  |  |  | C=CC(=O)N1CC(N2CCC(c3cc(C)c4c(c3)Nc3ncc(C#N)c(N5CCOCC5)c3CO4)CC2)C1 [Compound 156]

More lines, now with the values behind:

SMILES | IC50 [1] [nM] | IC50 [2] [nM] | Ki [3] [µM] | kinact [3] [s⁻¹] | kinact/KI [3, 4] [M⁻¹ s⁻¹] | CDK7 (20 nM enz.) (kinact, s^−1) [3] [s⁻¹] | CDK7 (20 nM enz.) (kinact/KI, M^−1*s^−1) [3] [M⁻¹ s⁻¹] | kinact/KI [3, 5] [M⁻¹ s⁻¹] | CDK7_A549 Wild-type CDK7 (pIC50) [1] | CDK7_A549 mutant hCDK7(pIC50) [2] | CDK7 (20 nM enz.) (kobs/[I], M^−1*s^−1) [3] [M⁻¹ s⁻¹]
C=CC(=O)N1CC(c2ncc(-c3cc(C)c4c(c3)Nc3nccc(N5CCS(=O)(=O)CC5)c3CO4)cn2)C1 [Compound 108] | 933 | > 10000 | 0.57 | 5.75e-05 | 101 |  |  |  |  |  | 
C=CC(=O)N1CCC(N2CC(c3cc(F)c4c(c3)Nc3nccc(C5CCOCC5)c3CO4)C2)CC1 [Compound 112] | 155 | 8510 | 0.0653 | 4.53e-05 | 693 |  |  |  |  |  | 
C=CC(=O)N1CCC(N2CCC(c3ccc4c(c3)Nc3nccc(N5CCS(=N)(=O)CC5)c3CO4)CC2)CC1 [Compound 113] | 380 | > 10000 | 0.39 | 6.16e-05 | 158 |  |  |  |  |  | 
C=CC(=O)N1CC(N2CCC(c3cc(Cl)c4c(c3)Nc3nccc(N5CCS(=O)(=O)CC5)c3CO4)CC2)C1 [Compound 115] |  |  | 0.0486 |  |  | 5.802e-05 | 1193.86 |  | 6.66 | <5 | 
C#Cc1cc(C2CCN(C3CN(C(=O)C=C)C3)CC2)cc2c1OCc1c(C3CCOCC3)ccnc1N2 [Compound 118] | 70.8 | > 10000 |  |  |  |  |  | 1620 |  |  | 
C=CC(=O)N1CC(N2CCC(c3cc(Cl)c4c(c3)Nc3nccc(C5CCOCC5)c3CO4)CC2)C1 [Compound 119] |  |  |  |  |  |  |  |  | 7.42 | <5 | 1611.37
C#Cc1cc2c(cc1C1CCN(C3CN(C(=O)C=C)C3)CC1)Nc1nccc(C3CCOCC3)c1CO2 [Compound 120] | 331 | > 10000 | 0.0783 | 8.13e-05 | 1040 |  |  |  |  |  | 
C=CC(=O)N1CC(N2CCC(c3ccc4c(c3)Nc3nccc(N5CCOCC5)c3CO4)CC2)C1 [Compound 121] |  |  | 0.0963 |  |  | 9.753e-05 | 1012.54 |  | 6.9 | <5 | 
C#CCCN(C)C/C=C/C(=O)N1CC(N2CCC(c3cc(C)c4c(c3)Nc3nccc(C5CCOCC5)c3CO4)CC2)C1 [Compound 124] | 97.7 | > 10000 |  |  |  |  |  | 1550 |  |  | 
C=CC(=O)N1CC(N2CCC(c3cc(C#N)c4c(c3)Nc3nccc(C5CCOCC5)c3CO4)CC2)C1 [Compound 125] | 27.5 | 7240 |  |  |  |  |  | 1230 |  |  | 
C=CC(=O)N1CC(N2CCC(c3cc(F)c4c(c3)Nc3nccc(-c5cnn(C)c5)c3CO4)CC2)C1 [Compound 126] | 47.9 | > 10000 |  |  |  |  |  |  |  |  | 875.576
C=CC(=O)N1CC(N2CCC(c3cc(C)c4c(c3)Nc3nccc(C5CCS(=O)(=O)CC5)c3CO4)CC2)C1 [Compound 133] | 166 | > 10000 | 0.0971 | 6.94e-05 | 715 |  |  |  |  |  | 
C=CC(=O)N1CC(N2CCC(c3cc4c(c(C(=O)NC)c3)OCc3c(C5CCOCC5)ccnc3N4)CC2)C1 [Compound 135] | 263 | ~7080 | 0.0578 | 5.71e-05 | 988 |  |  |  |  |  | 
C=CC(=O)N1CCC(N2CC(c3cc(F)c4c(c3)Nc3nccc(N5CCOCC5)c3CO4)C2)CC1 [Compound 136] | 72.4 | 7240 | 0.0603 | 4.42e-05 | 734 |  |  |  |  |  | 
C=CC(=O)N1CC(N2CCC(O)(c3cc(C)c4c(c3)Nc3nccc(N5CCOCC5)c3CO4)CC2)C1 [Compound 140] | 117 | > 10000 | 0.0741 | 6.51e-05 | 878 |  |  |  |  |  | 
C=CC(=O)N1CC(N2CCC(c3ccc4c(c3)Nc3ncc(F)c(N5CCOCC5)c3CO4)CC2)C1 [Compound 151] | 34.7 | > 10000 | 0.0205 | 4.67e-05 | 2280 |  |  |  |  |  | 
C=CC(=O)N1CC(N2CCC(c3ccc4c(c3)Nc3nccc(-c5cnn(C)c5)c3C(C)(C)O4)CC2)C1 [Compound 152] | ~67.6 | > 10000 | 0.0242 | 4.68e-05 | 1940 |  |  |  |  |  | 
C=CC(=O)N1CC(N2CCC(O)(c3ccc4c(c3)Nc3nccc(N5CCOCC5)c3C(C)O4)CC2)C1 (centres unmarked) [Compound 154] | 117 | > 10000 | 0.137 | 5.98e-05 | 438 |  |  |  |  |  | 
